The results in this text go back to patent US7871805B2, “Glucose dehydrogenase” (Toyo Boseki Kabushiki Kaisha, priority 2006, dated 2011).

For assay [1], the system named is GDH derived from NBRC6231. In words: Effects of chemicals on GDH activity. The format is biochemical, Penicillium lilacinoechinulatum.
Assay [2] deals with GDH derived from NBRC32032. The experiment in a line: Effects of chemicals on GDH activity. The format is biochemical, Penicillium italicum.
The test system of assay [3] is GDH derived from NBRC32032. The experiment in a line: Substrate specificity of purified GDH (DCPIP activity assay). In kind it is biochemical, Penicillium italicum. Conditions: for Relative activity: substrate final concentration 4 mM, activity using glucose as substrate made 100%; for action of enzyme upon substrate (in words): substrate 4 mM. As for the experimental part:
(§1) The present invention is also characterized by high substrate specificity, the action upon maltose is less than 1% of the action upon glucose, and the action upon galactose is less than 2% of the action upon glucose. The action referred to herein indicates the GDH activity at a substrate concentration of 4 mM, it is measured according to Test Example described later, and in a reaction solution composition used, for the substrate concentration, the final concentration is adjusted to 4 mM.
(§2) A reaction reagent is made by mixing 15.8 mL of the PIPES buffer, 0.2 mL of the DCPIP solution and 4 mL of the D-glucose solution.
(§3) The reaction reagent (2.9 mL) is preliminarily heated at 37° C. for 5 minutes. The GDH solution (0.1 mL) is added and gently mixed, subsequently the change of absorbance at 600 nm is recorded for 5 minutes using a spectrophotometer controlled to 37° C. using water as a control, and the change of absorbance per one minute (ΔODTEST) is calculated from a linear portion of the record. The solvent in which GDH will be dissolved in place of the blinded GDH solution is added to the reagent mixture, and the change of absorbance (ΔODBLANK) per one minute is measured. The GDH activity is calculated from these values according to the following formula. One unit (U) in the GDH activity is defined as the amount of the enzyme which reduces 1 μmol DCPIP for one minute in the presence of 200 mM D-glucose. Activity (U/mL)=[—(ΔODTEST−ΔODBLANK)×3.0×dilution scale]/(16.3×0.1×1.0)
(§4) In order to know the substrate specificity of the purified GDH solutions derived from NBRC6231 and NBRC32032 obtained in Example 1, the activity was measured using the reaction reagent in which the substance shown in Table had been dissolved at a final concentration of 4 mM.

The subject of assay [4] is GDH derived from NBRC6231. The assay is described as above. Conditions: for Relative activity: substrate final concentration 4 mM, activity using glucose as substrate made 100%; for action of enzyme upon substrate (in words): substrate 4 mM. In kind it is biochemical, Penicillium lilacinoechinulatum. As for the experimental part:
as §1, §2, §3, §4

The mark [5] stands for this setting: additive final concentration 2 mM, activity with no chemical made 100, GDH from NBRC6231.
Where [6] appears, read: 2 mM, inhibited = 10% or more activity lowering, strong = 50% or more, GDH from NBRC6231.
Where [7] appears, read: 2 mM, inhibited = 10% or more activity lowering, strong = 50% or more, GDH from NBRC32032.
Where [8] appears, read: additive final concentration 2 mM, activity with no chemical made 100, GDH from NBRC32032.

Read-outs that look alike come from different tables or passages of the source.

For the compound `[Cl][Ni][Cl]` [NiCl2], the Relative activity in assay [1] (setting [5]) is 96.6; in assay [2], 101.
Take `O=C[C@@H](O)[C@H](O)[C@H](O)CO` [Arabinose]: the Relative activity in assay [3] and in assay [4] was 0.2% in each case.
For `[Cl][Fe]([Cl])[Cl]` [FeCl3, iron chloride (III)], the Relative activity turned out to be 106 in assay [1] and 77.5 in assay [2]. For the same compound, the “inhibitory effect (in words)” value in assay [2] (2 mM) is “inhibited”.
`NC(=O)CI` [Iodoacetamide]: the Relative activity in assay [1] stood at 111; in assay [2], 101.
On to `O=CC[C@@H](O)[C@H](O)[C@H](O)CO` [2-deoxy-D-glucose], for which the “action of enzyme upon substrate (in words)” value (shortened to “action”) in assay [3] and in assay [4] was “acted upon” in each case. Further, the Relative activity is listed as 17.2% in assay [3] and 14.3% in assay [4].
On to `OCC(O)CO` [Glycerin], for which the Relative activity in assay [3] was 1.7%; in assay [4], 0.1> %.
In the case of `NO` [Hydroxylamine], the “inhibitory effect (in words)” value in assay [1] (setting [6]) and in assay [2] (setting [7]) was “inhibitory effect” throughout. For the same compound, the values for the Relative activity in assay [1] (setting [5]) and in assay [2] (setting [8]) were 81.5 and 79.1, respectively.
As for `O=C(O)CN(CCN(CC(=O)O)CC(=O)O)CC(=O)O` [EDTA], the results for the Relative activity in assay [1] and in assay [2] were 113 and 104, respectively.
Turning to `O=S(=O)([O-])[O-].[Cu+2]` [CuSO4, copper sulfate], the “inhibitory effect (in words)” value in assay [1] (setting [6]) and in assay [2] was “strong inhibitory effect” each time. Further, the figures for the Relative activity in assay [1] (setting [5]) and in assay [2] were 2.2 and 4.5, respectively.
`CCN1C(=O)C=CC1=O` [N-ethylmaleimide]: the “inhibitory effect (in words)” value in assay [1] (setting [6]) and in assay [2] (setting [7]) was “inhibitory effect” in each case. Also, the values for the Relative activity in assay [1] (setting [5]) and in assay [2] (setting [8]) were 86.8 and 87.8, respectively.
With `OC[C@H]1O[C@H](O[C@H]2[C@H](O)[C@@H](O)[C@@H](O[C@H]3[C@H](O)[C@@H](O)[C@@H](O[C@H]4[C@H](O)[C@@H](O)C(O)O[C@@H]4CO)O[C@@H]3CO)O[C@@H]2CO)[C@H](O)[C@@H](O)[C@@H]1O` (stereo partly shown) [Maltotetraose], the Relative activity in assay [3] was 1.6%; in assay [4], 0.1> %.
Turning to `OC[C@H]1O[C@@](CO)(O[C@H]2O[C@H](CO)[C@@H](O)[C@H](O)[C@H]2O)[C@@H](O)[C@@H]1O` [Sucrose], the Relative activity in assay [3] came out at 1.1%; in assay [4] it was 0.6%.
For `O=C(CO)[C@H](O)[C@@H](O)[C@H](O)CO` [Sorbose], the Relative activity in assay [3] was 0.5%; in assay [4], 0.1> %.
Consider `[Ca+2].[Cl-].[Cl-]` [CaCl2], for which the Relative activity in assay [1] (setting [5]) and in assay [2] was 103 each time.
For the compound `[Cl-].[Cl-].[Mg+2]` [MgCl2], the Relative activity in assay [1] (setting [5]) turned out to be 99.7; in assay [2], 102.
In the case of `O=C[C@H](O)[C@@H](O)[C@@H](O)[C@H](O)CO` [Galactose], the Relative activity in assay [3] amounted to 0.6%; in assay [4], 1.0%.
Consider `O=C[C@H](O)[C@H](O)[C@H](O)CO` [Ribose], for which the Relative activity in assay [3] was 0.2%; in assay [4] it was 0.1> %.
On the same counts, the results for `O=C(CO)[C@@H](O)[C@H](O)[C@H](O)CO` [Fructose] are 0.3% and 0.2%.
On to `OC[C@H]1O[C@@](CO)(O[C@H]2O[C@H](CO)[C@@H](O)[C@H](O)[C@H]2O)[C@@H](O[C@H]2O[C@H](CO)[C@@H](O)[C@H](O)[C@H]2O)[C@@H]1O` [Melezitose], for which the figures for the Relative activity in assay [3] and in assay [4] were 0.5% and 0.2%, respectively.
In the case of `[N-]=[N+]=[N-].[Na+]` [NaN3, sodium azide], the “inhibitory effect (in words)” value in assay [1] (setting [6]) was “inhibited”. Further, the Relative activity worked out at 89.3 in assay [1] (setting [5]) and 97.8 in assay [2].
Consider `c1cnc2c(c1)ccc1cccnc12` [o-phenanthroline], for which the values for the Relative activity in assay [1] and in assay [2] were 106 and 103, respectively.
Regarding `O=C[C@H](O)[C@@H](O)[C@H](O)CO` [Xylose], in assay [3], the “action” value is “acted upon” and the Relative activity is on record as 10.4%. Also, in assay [4], the “action” value is “acted upon” and the Relative activity was found to be 10.1%.
`[Cl-].[Cl-].[Zn+2]` [ZnCl2]: the figures for the Relative activity in assay [1] (setting [5]) and in assay [2] were 76.2 and 75.1, respectively.
Regarding `CC(=O)[O-].CC(=O)[O-].[Cd+2]` [Cd(OAc)2, cadmium acetate], the “inhibitory effect (in words)” value in assay [1] (setting [6]) and in assay [2] was “strong inhibitory effect” throughout. Moreover, the Relative activity was 41.0 in assay [1] (setting [5]) and 41.4 in assay [2].
In the case of `O=C(O)CI` [Monoiodoacetic acid], the Relative activity is recorded as 68.7 in assay [1] and 73.3 in assay [2]. The “inhibitory effect (in words)” value in assay [1] and in assay [2] was “inhibitory effect” each time.
As for `[Cl][Mn][Cl]` [MnCl2], the results for the Relative activity in assay [1] (setting [5]) and in assay [2] were 93.4 and 99.1, respectively.
Turning to Maltotriose, the Relative activity in assay [3] was 1.0%; in assay [4], 0.2%.
With `OC[C@H]1O[C@H](O[C@H]2O[C@H](CO)[C@@H](O)[C@H](O)[C@H]2O)[C@H](O)[C@@H](O)[C@@H]1O` [Trehalose], the Relative activity was 0.1> % in assay [3] and 0.3% in assay [4].
As to `[F-].[Na+]` [NaF], the Relative activity in assay [1] (setting [5]) is 111; in assay [2], 102.
As for `O=[N+]([O-])[O-].[Ag+]` [AgNO3, silver nitrate], the “inhibitory effect (in words)” value in assay [1] (setting [6]) and in assay [2] was “strong inhibitory effect” throughout. The Relative activity stood at 20.9 in assay [1] (setting [5]) and 15.0 in assay [2].
With `[Cl-].[Cl-].[Co+2]` [CoCl2], the results for the Relative activity in assay [1] and in assay [2] were 94.1 and 102, respectively.
For `OC[C@H]1O[C@H](O[C@H]2[C@H](O)[C@@H](O)C(O)O[C@@H]2CO)[C@H](O)[C@@H](O)[C@@H]1O` (mixture of isomers) [Maltose], the Relative activity was determined as 0.2% in assay [3] and 0.5% in assay [4].
As to `CC(=O)[O-].CC(=O)[O-].[Ba+2]` [Ba(OAc)2], the Relative activity in assay [1] (setting [5]) and in assay [2] was 106 throughout.
Regarding `OB(O)O` [Borate], the figures for the Relative activity in assay [1] (setting [5]) and in assay [2] were 111 and 102, respectively.
For `c1ccc(-c2ccccn2)nc1` [α,α′-dipyridyl], the Relative activity in assay [1] was 109; in assay [2] it was 102.
